≈ marks a conversion by molar mass, not a printed value. Where “and” joins values, the source holds several entries; their conditions need not be identical. Equal entries are not always repeated. Where two headings read alike, the source gives them in different places.
Columns and labels:
[1] = in vitro; conditions: dog
[2] = system: human erythrocytes
[3] = system: NA of S. pneumoniae DSM20566 (precipitated bacterial proteins); experiment: Hemagglutination (HA)-based NA inhibition assay, bacterial; type: biochemical, Streptococcus pneumoniae; conditions: pure compounds; total protein of DSM20566; human erythrocytes; highest tested 100 μM
Description: Inhibition of pneumococcal NAs circumvents hemagglutination.

[4] = in vitro; conditions: human
[5] = system: human erythrocytes; experiment: Interference with hemagglutination in the viral HA assay
[6] = molecular target: influenza virus A/WSN/33 NA (Influenza A virus, UniProt P03470); experiment: biochemical
Sequence of influenza virus A/WSN/33 NA (P03470 whole entry, looked up): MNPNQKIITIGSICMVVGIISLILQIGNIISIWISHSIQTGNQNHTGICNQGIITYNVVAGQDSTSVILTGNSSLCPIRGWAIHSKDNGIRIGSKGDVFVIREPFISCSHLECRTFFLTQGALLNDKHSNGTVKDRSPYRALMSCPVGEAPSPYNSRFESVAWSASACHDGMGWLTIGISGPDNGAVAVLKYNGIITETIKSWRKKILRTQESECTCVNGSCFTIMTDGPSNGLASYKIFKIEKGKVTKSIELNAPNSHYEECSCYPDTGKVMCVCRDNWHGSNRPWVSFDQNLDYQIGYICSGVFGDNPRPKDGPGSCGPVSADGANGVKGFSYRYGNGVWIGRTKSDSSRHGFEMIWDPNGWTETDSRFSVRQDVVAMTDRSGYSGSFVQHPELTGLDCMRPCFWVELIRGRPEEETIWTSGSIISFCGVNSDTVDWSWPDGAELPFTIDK

[7] = system: human erythrocytes; remark: listed apart in the source
[8] = system: IAV Jena/8178/2009 (8178/09); experiment: microbe, parasite or virus in culture; type: cell-based, Influenza A virus; conditions: Influenza A virus, MDCK, 48 h; read-out: IC50 of CPE IAV 8178/09

Row | Compound | CC50 at 72 h [1] | sample concentrations provoking induction of erythrocyte lysis in viral HA assay [2] | MIC in HA assay against S. pneumoniae DSM20566 [3] | CC50 at 72 h [4] | sample concentrations provoking prevention of virus-induced hemagglutination in viral HA assay [5] | IC50 [6] | sample concentrations provoking induction of erythrocyte lysis in bacterial HA assay ([7]; human) | sample concentrations provoking induction of erythrocyte lysis in bacterial HA assay [7] | sample concentrations provoking induction of erythrocyte lysis in viral HA assay ([2]; human) | CC50 [1] | CC50 [4] | IC50 [8]
1 | CC(C)=CCc1c(O)c(CC=C(C)C)c2occ(-c3ccc(O)cc3)c(=O)c2c1O [Compound 30, 6,8-diprenylgenistein] | 21.1 ± 0.91 µM | no | 10.0 ± 0.00 µM (≈ 4.06 µg/mL) | 48.8 ± 16 µM | 10 to 100 µM | 62.5 ± 5.4 µM | 31.6 to 100 µM |  |  |  |  | 
2 | CC(C)=CCc1c(O)cc(CCc2ccccc2)c(CC=C(C)C)c1O [Compound 33, 2,4-bis(3-methyl-2-buten-1-yl)-5-(2-phenylethyl)-1,3-benzenediol] | 33.4 ± 21.4 µM | no | 10.0 ± 0.00 µM (≈ 3.51 µg/mL) | 41.7 ± 14.6 µM | no | 97.7 ± 0.46 µM |  | no |  |  |  | 
3 | CC(C)=CCc1c(O)c(CC=C(C)C)c2c(c1O)C(=O)CC(c1cc(O)cc(O)c1)O2 (stereo not shown) [Compound 29, 2-(3,5-dihydroxyphenyl)-2,3-dihydro-5,7-dihydroxy-6,8-bis(3-methyl-2-buten-1-yl)-4H-1-benzopyran-4-one] | 34 ± 7.96 µM |  | 31.6 ± 0.00 µM (≈ 13.4 µg/mL) | 80.6 ± 2.47 µM | 31.6 to 100 µM | 53.1 ± 17.5 µM | 100 µM |  | 100 µM |  |  | 
4 | CC(C)=CCC/C(C)=C/Cc1c(O)cc2c(c1O)C(=O)CC(c1ccc(O)c(O)c1)O2 (stereo not shown) [Compound 25] | 55.8 ± 4.41 µM |  | 14.3 ± 9.66 µM (≈ 6.07 µg/mL) | > 100 µM | 31.6 µM | 41.4 ± 6.98 µM | 100 µM |  | 100 or no |  |  | 
5 | CC(C)=CCC12Oc3cc(O)c(C4=CC5(C)CC(C4)c4ccc(O)cc4O5)c(O)c3C(=O)C1(O)Oc1cc(O)ccc12 (stereo not shown) [Compound 1, sanggenon B] |  |  | 31.6 ± 0.00 µM (≈ 18 µg/mL) |  | 31.6 µM | 31.2 ± 10.1 µM | 100 µM |  | 100 or no | 28.1 ± 7.26 µM | 32 ± 9.16 µM | 
6 | CC(C)=CCc1c(O)c(CC=C(C)C)c2[nH]c3c(O)cccc3c(=O)c2c1O [Compound 34, atalphylline] |  | no | 17.2 ± 12.5 µM (≈ 6.53 µg/mL) |  | no | > 100 µM |  | no |  | 0.63 ± 0.04 µM | 60.4 ± 16.8 µM | 
7 | CC(C)=CCC/C(C)=C/Cc1c(O)cc2c(c1O)C(=O)[C@H](O)[C@@H](c1ccc(O)cc1)O2 [Compound 26, bonanniol A] | 42.2 ± 22.6 µM |  | 10.0 ± 0.00 µM (≈ 4.24 µg/mL) | 63.2 ± 25.9 µM | no | 63.9 ± 11.1 µM | 100 µM |  | 31.6 to 100 µM |  |  | 
8 | COc1cc(C2CC(=O)c3c(O)cc(O)cc3O2)ccc1O (racemic) [Compound 9, (±)-homoeriodictyol] |  | no |  |  | no |  |  | no |  |  |  | 
9 | CC(C)=CCc1cc(C2CC(=O)c3c(O)cc(O)cc3O2)ccc1O (stereo not shown) [Compound 20, 4',5,7-trihydroxy-3'-prenylflavanone] | 67.9 ± 2.62 µM |  |  | > 100 µM | no | > 100 µM | 100 or no |  | 100 or no |  |  | 
10 | COc1ccc(C2CC(=O)c3c(cc(O)c(CC=C(C)C)c3O)O2)cc1 (stereo not shown) [Compound 19] | 50.5 ± 6.32 µM | no |  | > 100 µM | no | > 100 µM | 31.6 to 100 µM |  |  |  |  | 
11 | CC1=C[C@H](c2c(O)ccc([C@@H]3CC(=O)c4c(O)cc(O)cc4O3)c2O)[C@@H](C(=O)c2ccc(O)cc2O)[C@H](c2ccc(O)cc2O)C1 [Compound 6, kuwanon L] |  |  | 31.6 µM and 31.6 ± 0.00 µM |  | 31.6 µM | 37.2 ± 10.6 µM | 100 µM |  | 100 µM | > 100 µM | 94.4 ± 4.73 µM | 
12 | CC(C)=CC[C@]12Oc3cc(O)c([C@H]4C=C(C)C[C@H](c5ccc(O)cc5O)[C@H]4C(=O)c4ccc(O)cc4O)c(O)c3C(=O)[C@@]1(O)Oc1cc(O)ccc12 [Compound 2, sanggenon C] |  |  |  |  | 3.1 to 100 µM | 9.18 ± 1.5 µM | 31.6 to 100 µM |  | 10 to 100 µM | 51.7 ± 12.2 µM | 32.6 ± 9.07 µM | 8.3 ± 0.7 µM
13 | COc1cc(C2CC(=O)c3c(cc(O)c(CC=C(C)C)c3O)O2)ccc1O (stereo not shown) [Compound 22, 2,3-dihydro-5,7-dihydroxy-2-(4-hydroxy-3-methoxyphenyl)-6-(3-methyl-2-buten-1-yl)-4H-1-benzopyran-4-one] | 63.4 ± 8.31 µM | no | 31.6 ± 0.00 µM (≈ 11.7 µg/mL) | > 100 µM | no | > 100 µM |  | no |  |  |  | 
14 | CC(C)=CCc1c(O)c(CC=C(C)C)c2occ(-c3ccc(O)c(O)c3)c(=O)c2c1O [Compound 31, 6,8-diprenylorobol] | 20 ± 1.53 µM |  |  | 47.1 ± 2.83 µM | no | 37.9 ± 14.6 µM | 100 µM |  | 31.6 to 100 µM |  |  | 
15 | COc1cc(C2CC(=O)c3c(O)cc(O)cc3O2)cc(CC=C(C)C)c1O (stereo not shown) [Compound 21, 2,3-dihydro-5,7-dihydroxy-2-[4-hydroxy-3-methoxy-5-(3-methyl-2-butenyl)phenyl]-4H-1-benzopyran-4-one] | 64.9 ± 1.28 µM | no | 65.8 ± 37.5 µM (≈ 24.4 µg/mL) | > 100 µM | no | 45.5 ± 6.06 µM |  | no |  |  |  | 
16 | CC(C)=CCc1c(O)cc(O)c2c1O[C@@H](c1ccc(O)cc1)[C@H](O)C2=O (relative stereo) [Compound 23, (2R,3R)-rel-4H-2,3-dihydro-3,5,7-trihydroxy-2-(4-hydroxyphenyl)-8-(3-methyl-2-buten-1-yl)-1-benzopyran-4-one] | 69 ± 3.56 µM | no | 31.6 ± 0.00 µM (≈ 11.3 µg/mL) | > 100 µM | no | 27 ± 3.24 µM |  | no |  |  |  | 24.7 ± 4.55 µM
17 | CC(C)=CCc1c(O)c(CC=C(C)C)c2c(c1O)C(=O)C[C@@H](c1ccc(O)cc1)O2 [Compound 28, 6,8-diprenylnaringenin] | 15.8 ± 7.58 µM | no | 15.4 ± 10.8 µM (≈ 6.29 µg/mL) | 59.1 ± 19.8 µM | no | > 100 µM | 100 µM |  |  |  |  | 
18 | CC(C)=CCc1c(O)c(CC=C(C)C)c2c(c1O)C(=O)C(c1ccc(O)cc1O)CO2 (stereo not shown) [Compound 32, orientanol E] | 21.4 ± 0.73 µM |  | 10.0 ± 0.00 µM (≈ 4.24 µg/mL) | 79.6 ± 2.77 µM | no | 26.9 ± 1.85 µM | 31.6 to 100 µM |  | 31.6 to 100 µM |  |  | 
19 | CC(C)=CCC/C(C)=C/Cc1c(O)cc(O)c2c1OC(c1ccccc1)CC2=O (racemic) [Compound 24, (R,S)-8-geranyl-5,7-dihydroxyflavanone] | 60.6 ± 3.81 µM | no | 3.16 ± 0.00 µM (≈ 1.24 µg/mL) | > 100 µM | 100 µM | > 100 µM | 100 µM |  |  |  |  | 
